From patent publication US7232846B2, “Amines as anti-alcoholism agents” (priority 2001, dated 2007)

Key:
[1] = test system: genetically-alcoholic rats (UChB strain); test: Anti-alcoholism activity in genetically-alcoholic rats (consumption of 10% v/v alcohol); format: in vivo, rat; details: for Reduction percentage in the consumption of alcohol (10% v/v), treat.: first 6 h after starting the treatment, vs reference period; for Reduction percentage in the consumption of alcohol (10% v/v), post-treat.: first 6 h after having stopped a 3-day treatment
Description: As an animal model of alcoholic humans, adult Wistar rats of both sexes, belonging to the UChB strain were used. This strain of rats is the result of a long selection at the University of Chile, and rats belonging to it are known to be volunteer consumers of 10% (v/v) aqueous alcohol (cf. J. Mardones and N. Segovia-Riquelme, “Thirty two years of selection of rats by ethanol preference”: UChA and UChB strains”, Neurobehav. Toxicol. and Teratol. 1983, vol. 5, pp. 171–178). Thus, the rats used in these experiments can be considered genetically alcoholic.
Rats were kept in individual cages at 22° C., with alternative 12 h periods of light and darkness. Besides unlimited access to food, they had ad libitum access to water and 10% (v/v) aqueous alcohol. All experiments were double-blind, and results were analyzed using common statistical methods. As changes in alcohol consumption might be influenced by the eagerness of food and/or water intake, both the consumption of food and of water were measured and analyzed. However, experimental changes in the consumptions of both food and water were not significant. In each experiment the following three periods of time were considered:
a) A reference period, consisting of the three days previous to treatment. The measured consumption values were used as reference for comparison purposes.
b) A treatment period, consisting of the three days during which aqueous solutions of the tested compounds (obtained from SIGMA) were intra-gastrically administered, always at the same time of the day. Polyamines were administered as aqueous solutions of their corresponding fully-neutralized hydrochlorides, at concentration of 100 mg of the free-amine per 100 ml of water, when doses of 2 mg of amine per kg of rat; and at concentration of 1000 mg/100 ml, When doses of 20 mg/kg. Dansyl derivatives of polyamines were administered as aqueous suspensions of 100 mg of derivative per 100 ml of water, when doses of 4 mg of free-amine per kg of rat.
c) A post-treatment period, consisting of the three days immediate after the treatment period, during which measurement were taken in order to establish the duration of the effect and the reversibility of the changes.
Table 1 summarizes the average results from nine experiments, each one carried out with a set of 8 rats, where several compounds at different doses were used, and measurements of alcohol consumption were done at 6 h after the beginning of the treatment period, and at 6 h after the beginning of the post-treatment period. Figures in the table are differences in 10% (v/v) ethanol consumption between a given consumption during the reference period and the corresponding consumption during the treatment (or post-treatment) period, expressed a percentage of the consumption during the reference period (i.e. divided by this and multiplied by 100). As indicated by the figures, during treatment a significant reduction occurred in all cases; and during post-treatment a significant reduction occurred in all cases but two (those marked “ns”=non significant). Results in the table also indicate that there is a dose-effect relationship in the reduction of alcohol consumption during the treatment period.

[2] = Assessment of the disulfiram-like adverse effect (blood acetaldehyde after ethanol injection); format: in vivo, rat; details: Wistar rats, single 2 mg/kg p.o. 1 h before ethanol, mean ± SEM
Protocol: Blood samples were taken from the tail of the rat at different times after the injection of the ethanol solution. […] The animals of the disulfiram group received two doses of 300 mg p.o. of disulfiram per kg of rat, 23 h and 17 h before the administration of ethanol. The high concentration of acetaldehyde detected in these groups was expected. […] The animals of the other four groups received a single dose p.o. of 2 mg of the corresponding compound (in the form of 10 mg/100 ml aqueous solutions, which was of the hydrochlorides in the case of polyamines) per kg of rat, 1 h before the administration of ethanol. Figures in the table are mean values (±SEM) of acetaldehyde concentration in blood at the indicated times. It is observed that values of the groups corresponding to the four tested compounds were only slightly above the control ones, but far below the corresponding values of the disulfiram group.

[3] = dose 20 mg/kg, ns = non significant
[4] = dose 2 mg/kg, ns = non significant

With `NCCCN` [1,3-propanediamine] the “Reduction percentage in the consumption of alcohol (10% v/v), treat.” value (“Reduction percentage … (10% v/v), treat.” below) ([1]; dose 20 mg/kg intra-gastric) was 27% and the “Reduction percentage in the consumption of alcohol (10% v/v), post-treat.” value (from here on “Reduction percentage … (10% v/v), post-treat.”) [1, 3] was 12%.

With `NCCCCN` [putrescine] the “Reduction percentage … (10% v/v), treat.” value ([1]; dose 2 mg/kg intra-gastric) was 13%, the “Reduction percentage … (10% v/v), post-treat.” value [1, 4] was “ns” and the “Reduction percentage … (10% v/v), treat.” value ([1]; dose 20 mg/kg intra-gastric) was 28%. The “Reduction percentage … (10% v/v), post-treat.” value [1, 3] was 13%.

In the case of `NCCCCNCCCN` [spermidine], the “Reduction percentage … (10% v/v), treat.” value ([1]; dose 2 mg/kg intra-gastric) is reported as 25%, the “Reduction percentage … (10% v/v), post-treat.” value [1, 4] is reported as 17% and the “Reduction percentage … (10% v/v), treat.” value ([1]; dose 20 mg/kg intra-gastric) is reported as 29%. For the same molecule, the “Reduction percentage … (10% v/v), post-treat.” value [1, 3] was “ns”.

With `NCCCNCCCCNCCCN` [spermine] the “Reduction percentage … (10% v/v), treat.” value ([1]; dose 2 mg/kg intra-gastric) was 27%, the “Reduction percentage … (10% v/v), post-treat.” value [1, 4] was 29% and the “Reduction percentage … (10% v/v), treat.” value ([1]; dose 20 mg/kg intra-gastric) was 42%. For the same molecule, the “Reduction percentage … (10% v/v), post-treat.” value [1, 3] was 12%.

With dansyl putrescine the “Reduction percentage … (10% v/v), treat.” value ([1]; dose 4 mg/kg intra-gastric) was 23% and the “Reduction percentage … (10% v/v), post-treat.” value ([1]; dose 4 mg/kg) was 22%.

In the case of dansyl spermidine, the “Reduction percentage … (10% v/v), treat.” value ([1]; dose 4 mg/kg intra-gastric) is reported as 29%, the “Reduction percentage … (10% v/v), post-treat.” value ([1]; dose 4 mg/kg) is reported as 19% and the “Acetaldehyde concentration in blood” value ([2]; 0.5 h after i.p. 2.76 g/kg ethanol) is reported as 150 ± 5 μg/100 ml. For the same molecule, the “Acetaldehyde concentration in blood” value ([2]; 2 h after i.p. 2.76 g/kg ethanol) was 40 ± 9 μg/100 ml.
